Read-outs that look alike come from different tables or passages of the source.
Experiments:
[1] = system: non-insulin-dependent diabetes induced in rats by Streptozotocin; assay: Antidiabetic activity by the oral route in the nOSTZ rat model of non-insulin-dependent diabetes; assay type: in vivo; conditions: 96 h, nOSTZ diabetic rats; for change in vivo at 20 mg/kg: 20 mg/kg/4d; for change in vivo at 200 mg/kg: 200 mg/kg/4d
Experimental: To determine an antidiabetic activity by the oral route on an experimental model of non-insulin-dependent diabetes induced in rats by Streptozotocin.
The non-insulin-dependent diabetes model is obtained in rats by a neonatal injection (on the day of birth) of Streptozotocin.
The diabetic rats used are 8 weeks old.
The animals are kept, from the day of their birth to the day of the experiment, in an animal house at a regulated temperature of 21 to 22° C., and subjected to a fixed cycle of light (from 7.00 h to 19.00 h) and of darkness (from 19.00 h to 7.00 h). Their diet consisted of a maintenance diet; water and food were provided “ad libitum”, with the exception of the 2 hours of fasting preceding the tests where food is withdrawn.
On the day of the experiment, the rats are treated orally with the test product, and then 90′ later, are anaesthetized with Nembutal. 2 hours after the administration of the product, a 500-μl blood sample is collected from the tail.
The blood is collected over Heparin. All the tubes are placed on ice at the time the samples are collected. These are then centrifuged for 10 minutes at 3000 revolutions/minute to separate the organized elements as rapidly as possible.
The plasma obtained is distributed into 2 aliquots: one for the assay of glycaemia and lactatamia; these assays are carried out immediately the other for the assay of insulinaemia—is stored in the freezer at −20° C. up to the day of the assay They are determined by the glucose oxydase and lactate oxydase technique (Eppendorf Ebio 6666) The plasma insulin is assayed by a radio-immunological method

melting point [°C] | SMILES | change in vivo at 20 mg/kg ([1]; read-out: % Glycaemia) [%] | change in vivo at 200 mg/kg ([1]; read-out: % Glycaemia) [%] | change in vivo at 20 mg/kg ([1]; read-out: % Insulinaemia) [%] | change in vivo at 200 mg/kg ([1]; read-out: % Insulinaemia) [%]
134 to 136 | Cc1ccc(C)c(OCCC2SC(=O)NC2=O)c1 (centres unmarked) (hydrate or solvate) [Compound 18] |  |  |  | 
68 to 70 | O=C1NC(=O)C(CCCCCCOc2ccc(Cl)cc2)S1 (centres unmarked) [Compound 9] | 10 | -16 | -15 | -30
98 to 100 | O=C1NC(=O)C(CCCCCOc2ccc(F)cc2)S1 (centres unmarked) [Compound 10] | -1 | -9 | -12 | -48
185 to 187 | O=C1NC(=O)C(CCOc2cccc3ccccc23)S1 (centres unmarked) [Compound 11] | -12 | -21 | -31 | -23
121 | O=C1NC(=O)C(C(COc2ccc(F)cc2)c2ccccc2)S1 (centres unmarked) [Compound 12] | -6 | -6 | -35 | -56
87 | O=C1NC(=O)C(CCOc2cccc(F)c2)S1 (centres unmarked) [Compound 13] | -14 | -2 |  | 
138 | O=C1NC(=O)C(CCOc2ccccc2F)S1 (centres unmarked) [Compound 14] | -4 | -7 | -23 | -51
133 | O=C1NC(=O)C(CCOc2ccc3ccccc3c2)S1 (centres unmarked) [Compound 15] | -14 | -22 | -9 | -12
131 to 133 | O=C1NC(=O)C(C(O)COc2ccc(F)cc2)S1 (centres unmarked) [Compound 16, 5-{[1-hydroxy-2-(4-fluorophenoxy)]ethyl}-2,4-thiazolidinedione] | -6 | -22 | -12 | 0
96 to 98 | O=C1NC(=O)C(CC(O)COc2ccc(F)cc2)S1 (centres unmarked) [Compound 17, 5-{[2-hydroxy-3-(4-fluorophenoxy)]propyl}-2,4-thiazolidinedione] | -20 | -7 | 4 | -5
106 to 108 | CC(COc1ccccc1)C1SC(=O)NC1=O (centres unmarked) [Compound 19, 5-[1-methyl-2-phenoxyethyl]-2,4-thiazolidinedione] | -6 | -20 | 2 | -10
101 to 103 | COCCc1ccc(OCCC2SC(=O)NC2=O)cc1 (centres unmarked) [Compound 20] | -10 | -14 |  | 
234 to 236 | O=C1NC(=O)C(CCOc2ccc(C(=O)O)cc2)S1 (centres unmarked) [Compound 21] | -1 | -9 |  | 

Second part, the molecule before the results:

SMILES | melting point [°C] | change in vivo at 20 mg/kg ([1]; read-out: % Glycaemia) [%] | change in vivo at 200 mg/kg ([1]; read-out: % Glycaemia) [%] | change in vivo at 20 mg/kg ([1]; read-out: % Insulinaemia) [%] | change in vivo at 200 mg/kg ([1]; read-out: % Insulinaemia) [%]
O=C1NC(=O)C(CCOc2ccccc2)S1 (centres unmarked) [Compound 1, 5-(2-phenoxyethyl)-2,4-thiazolidinedione] |  | -15 | -26 |  | 
O=C1NC(=O)C(CCOc2ccc(F)cc2)S1 (centres unmarked) [Compound 2, 5-[2-(4-fluorophenoxy)ethyl]-2,4-thiazolidinedione] | 94 to 96 | -2 | -19 | -1 | -27
O=C1NC(=O)C(CCCOc2ccc(F)cc2)S1 (centres unmarked) [Compound 3, 5-[3-(4-fluorophenoxy)propyl]-2,4-thiazolidinedione] | 121 to 123 | -17 | -17 | 1 | -37
O=C1NC(=O)C(CCOc2ccc(Cl)cc2)S1 (centres unmarked) [Compound 4] | 116 to 118 | -3 | -17 | -35 | -33
O=C1NC(=O)C(CCOc2ccc(Br)cc2)S1 (centres unmarked) [Compound 5] | 104 to 106 | -10 | -23 | -9 | -62
N#Cc1ccc(OCCC2SC(=O)NC2=O)cc1 (centres unmarked) [Compound 6, 5-[2-(4-cyanophenoxy)ethyl]-2,4-thiazolidinedione] |  | -20 | -26 | 0 | -49
O=C1NC(=O)C(CC2COc3ccccc3O2)S1 (centres unmarked) [Compound 7] | 145 | 1 | -10 | 6 | -47
Cc1ccc(OCCC2SC(=O)NC2=O)cc1 (centres unmarked) [Compound 8] | 119 to 121 | -3 | -9 | -30 | -26
Cc1ccc(C)c(OCCC2SC(=O)NC2=O)c1 (centres unmarked) [Compound 18] |  | -8 | -9 | -4 | -17

From patent US6437143B1, “Thiazolidone-2 derivatives, 4-diketone substituted, method for obtaining them and pharmaceutical compositions containing same” (Merck Patent Gesellschaft mit beschrankter Haftung, priority 1996, dated 2002)
